From patent US20030148960A1, “Combination therapy of angiotensin converting enzyme inhibitor and side-effect-reduced amount of aldosterone antagonist for treatment of cardiovascular disease” (G.D. Searle & Co., priority 1995, published 2003)

Key:
[1] = system: patients afflicted with congestive heart failure; conditions: 100 mg/day coadministered with an ACE inhibitor; cited from earlier work
[2] = system: patients with symptomatic heart failure; experiment: Human clinical trial: cardiac assessments and changes in patient therapy; assay type: in vivo
Source text: (§1) Cardiac assessments that included blood pressure, pulse, sodium retention score (general assessment of a patient's edematous state was derived from the summation of scores obtained from Table I), NYHA classification, and
All statistical methods were two-sided.

[3] = system: patients with symptomatic heart failure; experiment: Human clinical trial: clinical laboratory values (neurohormones, hematology, biochemistry); conditions: for PRA (plasma renin activity), Week 12 mean change: Week 12 vs baseline, with stable ACE inhibitor and loop diuretic
[4] = system: myocardial fibrosis in animal models; conditions: cited from earlier work
[5] = system: patients with symptomatic heart failure; experiment: Human clinical trial: hospitalizations and deaths; assay type: in vivo
Source text: A breakdown of the hospitalizations is as follows:

refractory CHF = conditions: 50 mg/day to 100 mg/day (average 73 mg/day) in combination with captopril; cited from earlier work
[6] = system: patients with symptomatic heart failure; experiment: Human clinical trial: incidence of adverse events, intent-to-treat cohort; assay type: in vivo
[7] = system: patients with symptomatic heart failure; experiment: Human clinical trial: change in weight and vital signs; assay type: in vivo
Source text: Laboratory Measurements: The following information was obtained from each patient at baseline:
as §1
All statistical methods were two-sided.

[8] = system: patients with symptomatic heart failure; experiment: Human clinical trial: incidence and predictors of hyperkalemia (Cox regression); conditions: type of ACE-I as predictor; step-wise Cox regression; patients on spironolactone or placebo
Source text: In this, analysis, the risk ratio can be thought of as the probability that the patient with the risk factor will develop hyperkalemia, relative to the probability that a patient without the risk factor will develop it.

What does the source list for `CC(=O)S[C@@H]1CC2=CC(=O)CC[C@]2(C)[C@H]2CC[C@@]3(C)[C@@H](CC[C@@]34CCC(=O)O4)[C@H]12` [Spironolactone, 17-hydroxy-7α-mercapto-3-oxo-17α-pregn-4-ene-21-carboxylic acid γ-lactone acetate]?
Patients in whom treatment was highly effective [1]: 13 of 16; Sodium retention score, dose response ([2]; Day 9, p=0.019, not seen at later visits): higher doses showing more reduction in sodium retention score; Changes in loop diuretic therapy ([2]; Week 8, p=0.004, not observed at Week 12): more patients on the higher doses of spironolactone had decreases in the loop diuretic dose compared to the placebo group; NYHA Class ([2]; spironolactone groups vs placebo): the difference was not statistically significant; PRA (plasma renin activity), Week 12 mean change ([3]; 12.5 mg/d): 9.90 NgAngl/L/s; PRA (plasma renin activity), Week 12 mean change ([3]; 25 mg/d): 9.33 NgAngl/L/s; PRA (plasma renin activity), Week 12 mean change ([3]; 50 mg/d): 13.18 NgAngl/L/s; PRA (plasma renin activity), Week 12 mean change ([3]; 75 mg/d): 10.23 NgAngl/L/s; Change from baseline in PRA, dose response ([3]; Day 9, Week 4 and Week 12, P≦0.001): higher doses of spironolactone associated with greater increases in PRA; N-Terminal ANF change from baseline ([3]; all active treatments, all treatment visits): decreases from baseline; Change from baseline in serum potassium, dose response ([3]; all treatment period visits, p<0.001): Higher doses of spironolactone were associated with larger increases in potassium; Urinary aldosterone excretion, dose response ([3]; baseline to 12 week visit, p=0.002): Greater increases were seen at higher doses; Effect on myocardial fibrosis [4]: prevents myocardial fibrosis; Hospitalizations, number of patients ([5]; 12.5 mg): 3 Patients; Hospitalizations, percent of patients ([5]; 12.5 mg): (7.3%); Hospitalizations, number of patients ([5]; 25 mg): 3 Patients; Hospitalizations, percent of patients ([5]; 25 mg): (6.6%); Hospitalizations, number of patients ([5]; 50 mg): 13 Patients; Hospitalizations, percent of patients ([5]; 50 mg): (27.6%); Hospitalizations, number of patients ([5]; 75 mg): 6 Patients; Hospitalizations, percent of patients ([5]; 75 mg): (14.6%); Deaths within 30 days after the study was completed ([5]; patients previously at the 50 mg dose): Three patients died within 30 days after the study was completed; Control of refractory CHF (refractory CHF): effective to control refractory CHF without serious incidents of hyperkalemia; Incidence of URT infection ([6]; 12.5 mg): 4.9 Percentage of Patients; Incidence of abdominal pain ([6]; 12.5 mg): 7.3 Percentage of Patients; Incidence of angina pectoris ([6]; 12.5 mg): 19.5 Percentage of Patients; Incidence of arthralgia ([6]; 12.5 mg): 4.9 Percentage of Patients; Incidence of coughing ([6]; 12.5 mg): 4.9 Percentage of Patients; Incidence of diarrhea ([6]; 12.5 mg): 4.9 Percentage of Patients; Incidence of dizziness ([6]; 12.5 mg): 12.2 Percentage of Patients; Incidence of dyspnea ([6]; 12.5 mg): 22.0 Percentage of Patients; Incidence of fatigue ([6]; 12.5 mg): 12.2 Percentage of Patients; Incidence of headache ([6]; 12.5 mg): 9.8 Percentage of Patients; Incidence of hyperkalemia (adverse event) ([6]; 12.5 mg): 2.4 Percentage of Patients; Incidence of nausea ([6]; 12.5 mg): 2.4 Percentage of Patients; Incidence of URT infection ([6]; 25 mg): 11.1 Percentage of Patients; Incidence of abdominal pain ([6]; 25 mg): 8.9 Percentage of Patients; Incidence of angina pectoris ([6]; 25 mg): 20.0 Percentage of Patients; Incidence of arthralgia ([6]; 25 mg): 4.4 Percentage of Patients; Incidence of coughing ([6]; 25 mg): 2.2 Percentage of Patients; Incidence of diarrhea ([6]; 25 mg): 22.2 Percentage of Patients; Incidence of dizziness ([6]; 25 mg): 13.3 Percentage of Patients; Incidence of dyspnea ([6]; 25 mg): 15.6 Percentage of Patients; Incidence of fatigue ([6]; 25 mg): 13.3 Percentage of Patients; Incidence of headache ([6]; 25 mg): 2.2 Percentage of Patients; Incidence of hyperkalemia (adverse event) ([6]; 25 mg): 8.9 Percentage of Patients; Incidence of nausea ([6]; 25 mg): 17.8 Percentage of Patients; Incidence of URT infection ([6]; 50 mg): 8.7 Percentage of Patients; Incidence of abdominal pain ([6]; 50 mg): 13.0 Percentage of Patients; Incidence of angina pectoris ([6]; 50 mg): 8.7 Percentage of Patients; Incidence of arthralgia ([6]; 50 mg): 8.7 Percentage of Patients; Incidence of coughing ([6]; 50 mg): 4.3 Percentage of Patients; Incidence of diarrhea ([6]; 50 mg): 8.7 Percentage of Patients; Incidence of dizziness ([6]; 50 mg): 13.0 Percentage of Patients; Incidence of dyspnea ([6]; 50 mg): 26.1 Percentage of Patients; Incidence of fatigue ([6]; 50 mg): 15.2 Percentage of Patients; Incidence of headache ([6]; 50 mg): 15.2 Percentage of Patients; Incidence of hyperkalemia (adverse event) ([6]; 50 mg): 15.2 Percentage of Patients; Incidence of nausea ([6]; 50 mg): 6.5 Percentage of Patients; Incidence of URT infection ([6]; 75 mg): 2.4 Percentage of Patients; Incidence of abdominal pain ([6]; 75 mg): 7.3 Percentage of Patients; Incidence of angina pectoris ([6]; 75 mg): 14.6 Percentage of Patients; Incidence of arthralgia ([6]; 75 mg): 4.9 Percentage of Patients; Incidence of coughing ([6]; 75 mg): 2.4 Percentage of Patients; Incidence of diarrhea ([6]; 75 mg): 14.6 Percentage of Patients; Incidence of dizziness ([6]; 75 mg): 17.1 Percentage of Patients; Incidence of dyspnea ([6]; 75 mg): 24.4 Percentage of Patients; Incidence of fatigue ([6]; 75 mg): 14.6 Percentage of Patients; Incidence of headache ([6]; 75 mg): 7.3 Percentage of Patients; Incidence of hyperkalemia (adverse event) ([6]; 75 mg): 19.5 Percentage of Patients; Incidence of nausea ([6]; 75 mg): 19.5 Percentage of Patients; Change in mean systolic and diastolic blood pressure (standing and supine) ([7]; 25 mg, 50 mg and 75 mg groups, all visits): decreases in mean systolic and diastolic blood pressure; Mean change in weight from baseline to Week 12 ([7]; 50 mg/d, Week 12, with stable ACE inhibitor and loop diuretic): 0.62 (2.05); Change from baseline in body weight, dose response ([7]; 75 mg dose group, Day 9 and Week 4): more weight loss than other patients

For `C[C@H](CS)C(=O)N1CCC[C@H]1C(=O)O` [Captopril, captopril], which “Risk ratio of hyperkalemia, captopril vs other ACE-I” value [8] is on record?
Its value is “about one-third”.
